Data taken from patent US20130283404A1, “EPIGENETICS IN AUTOIMMUNITY” (The Regents of the University of Michigan, priority 2012, published 2013).

Legend:
Assay type in all cases: cell-based, human
X chromosome MicroRNA = experiment: Genome-wide qPCR miRNA expression profiling of 5-azaC treated CD4+ T cells; conditions: 72 hrs; for LET-7f-2 Fold change (5AzaC/No 5Aza): table line 4
Method: (§1) For in vitro demethylation assay, isolated CD4+ cells were cultured with 5 μM 5-AzaC for 72 hours. The cells were then treated (restimulated) or not with 5 ng/ml PMA and 500 ng/ml ionomycin or not for an additional 6 hr, and CD4+ cells were recovered and washed 2 times with PBS. Total RNA including miRNAs was isolated using miRNeasy kit (Qiagen) for miRNA and mRNA expression analysis. Genomic DNA was isolated using Qiagen DNeasy Blood & Tissue Kit. (Hewagama, 2009; Lu, 2007; Quddus, 1993; herein incorporated by reference in their entireties).
Genome-wide qPCR miRNA expression profiling was performed using (System Biosciences (SBI), Cat# RA660A-1) profiler. Briefly, 800 ng totals RNA containing miRNA was converted to complementary DNA with the QuantiMir kit, according to the manufacturer protocol. Real time PCR in 384 well format using miRNA-specific primers was performed using ABI 7900 real-time PCR system at University of Michigan microarray or sequencing core facilities. Resulting data was analyzed by using Human miRNome profiler software provided by SBI.
To identify methylation sensitive […], miRNA expression profiles were compared between 5-AzaC treated CD4+ cells and non-treated controls from healthy men and women. Differentially expressed miRNAs were identified. Then the X chromosome encoded miRNA's increased by 5-azaC in women, compared to men were identified.
Experiments were conducted during the development of embodiments of the present invention to identify X-linked miRNA's increasing more in experimentally demethylated T cells from women than men and also overexpressed in women relative to men with active lupus. The human X chromosome encodes 128 miRNA while the Y chromosome encodes only 15 (Ensembl release 65—December 2011 © WTSI/EBI WTSI/EBI). PBMC from the peripheral blood of healthy men and healthy women ages 23-35 were stimulated with PHA and treated with 5-azaC as before. 72 hrs later CD4+ T cells were purified and miRNA's surveyed using PCR arrays detecting 80 X chromosome and 824 autosomal miRNAs but no Y miRNA's.

OGT [1] = experiment: OGT mRNA by RT-PCR in 5-azaC treated CD4+ T cells; conditions: 72 hours, restimulated with PMA and ionomycin, more in women than in men
Method: as §1
(§2) Up to 1000 ng total RNA from CD4+ T cells was transcribed into cDNA using Transcriptor First Strand cDNA synthesis kit (Roche) according to the manufacture's instruction. The cDNA was then subjected to real-time PCR using a Rotor-Gene 3000 thermocycler (Corbett). Roche (Basle) FastStart universal SYBR green master (Roche) mix containing 1 μl template cDNA and 0.5 μM forward and reverse primers in a total volume of 20 μl was annealed at 56° C. for a total of 40 cycles. The fold change of expression was calculated using ACTB and 18sRNA as internal reference genes.
(§3) The sex-specific differences in gene expression were confirmed in experimentally demethylated CD4+ T cells from an additional 9 pairs of healthy men and women. […] CD4+ T cells were then purified using magnetic beads, RNA isolated, and OGT and CXCR3 mRNA levels quantitated by RT-PCR. […]

CXCR3 [2] = experiment: CXCR3 mRNA by RT-PCR in 5-azaC treated CD4+ T cells; conditions: 72 hours, restimulated with PMA and ionomycin, more in women than in men
Method: as §1, §2, §3

OGT [3] = experiment: OGT protein by immunoblotting in 5-azaC treated CD4+ T cells; conditions: CD4+ T cells from women but not men, 72 h
Method: (§4) CD4 ? T cell CXCR3 levels were measured by flow cytometry using antibodies from Santa Cruz Biotechnology. OGT was measured by solubilizing bead-purified CD4 ? T cells, fractionating the lysates by electrophoresis, transferring the proteins to nitrocellulose membranes, then probing with anti-OGT antibodies (Abcam). CBL protein levels were measured by immunoblotting with anti-CBL antibody (BD Biosciences) and approaches similar to OGT. Protein bands were visualized using an ECL chemiluminescence detection system, then scanned and quantified with ImageQuant 5.2 software. Values were normalized to b-actin and levels expressed relative to non-stimulated CD4 ? T cells. (Basu, 2009; Lu, 2007, Gorelik, 2012; herein incorporated by reference in their entireties).
PBMC from N healthy men and women were stimulated with PHA, treated with 5-azaC, and 72 hours later restimulated with PMA and ionomycin as for an additional 6 hours as before. CD4+ T cells were isolated and OGT levels compared by immunoblotting.

CXCR3 [4] = experiment: CXCR3 protein by immunoblotting and flow cytometry on 5-azaC treated CD4+ T cells; conditions: for CXCR3 MFI: mean±SEM
Method: as §4
CXCR3 protein levels were similarly compared on 5-azaC treated CD4+ T cells with and without restimulation using immunoblotting and flow cytometry. In contrast to OGT, using untreated and 5-azaC treated CD4+ T cells from male-female pairs, no increase in CXCR3 protein was observed (CXCR3MFI: female 320+91, male 316+108, mean±SEM) despite the increase in CXCR3 mRNA in the women.

OGT regulatory elements = experiment: Methylcytosine affinity purification (MeCAP) of OGT regulatory region in CD4+ T cells; conditions: CD4+ T cells from women but not men
Method: (§5) Genomic DNA from isolated CD4+ T cells (˜3×10^6), was extracted using Qiagen DNeasy Blood & Tissue Kit. 3-5 μg isolated DNA was sonicated to average of ˜500 bp with a Covaris DNA shearing system at UM sequencing core. Fragments were size-evaluated using an Agilent 2100 Bioanalyzer. Approximately 400 ng sonicated DNA was subjected to MeCAP experiments using Active Motif METHYLCOLLECTOR Ultra Kit according to the manufacturer's instructions. DNA fragments from the methylation-enriched fraction were purified using QIAquick PCR Purification Kit (Qiagen). MeCAP enriched and reference input samples were quantitated using quantitative real time PCR(RT-qPCR) with primers designed for specific regions flanking the putative transcription start site of the gene promoters. Differentially methylated regions between patient and normal healthy controls were identified by comparing % enrichment (relative to input) of the 500 bp window of methylated fragments.
(§6) The overexpression of OGT and CXCR3 in 5-azaC treated CD4+ T cells from women relative to men is consistent with demethylation of regulatory regions on their silenced X chromosome. […]

[5] = test system: CXCR3 regulatory elements; experiment: Methylcytosine affinity purification (MeCAP) of CXCR3 regulatory region in CD4+ T cells; conditions: CD4+ T cells from women
Method: as §5, §6

[6] = test system: miR-98/Let 7-f2 gene cluster; experiment: Methylation of regulatory regions 5' to the miR-98/Let 7-f2 gene cluster in CD4+ T cells; conditions: T cells from women but not men
Method: as §5
Methylation of potential regulatory regions 5′ to the miR-98/Let 7-f2 gene cluster was compared in experimentally demethylated CD4 ? T cells from women relative to men, and in CD4 ? T cells from women with active lupus.

## Nc1ncn([C@@H]2O[C@H](CO)[C@@H](O)[C@H]2O)c(=O)n1 [5-azaC]
X chromosome MicroRNA; Female CD4+ T cells
  MIR-98 Fold change (5AzaC/No 5Aza): 1.7 ± 0.2
  MIR-106a Fold change (5AzaC/No 5Aza): 5.2 ± 1.5
  MIR-188(3p) Fold change (5AzaC/No 5Aza): 12.7 ± 3.0
  MIR-421 Fold change (5AzaC/No 5Aza): 17.4 ± 5.0
  MIR-424 Fold change (5AzaC/No 5Aza): 2.2 ± 0.5
  MIR-450a Fold change (5AzaC/No 5Aza): 2.4 ± 0.7
  MIR-450b Fold change (5AzaC/No 5Aza): 14.3 ± 4.4
  MIR-503 Fold change (5AzaC/No 5Aza): 14.3 ± 4.4
  MIR-508(3p) Fold change (5AzaC/No 5Aza): 4.2 ± 1.1
  LET-7f-2 Fold change (5AzaC/No 5Aza): 3.8 ± 1.2
X chromosome MicroRNA; Male CD4+ T cells
  MIR-98 Fold change (5AzaC/No 5Aza): 1.4 ± 0.2
  MIR-106a Fold change (5AzaC/No 5Aza): 1.1 ± 0.4
  MIR-188(3p) Fold change (5AzaC/No 5Aza): 4.1 ± 2.1
  MIR-421 Fold change (5AzaC/No 5Aza): 7.8 ± 3.7
  MIR-424 Fold change (5AzaC/No 5Aza): 1.1 ± 0.3
  MIR-450a Fold change (5AzaC/No 5Aza): 1.1 ± 0.8
  MIR-450b Fold change (5AzaC/No 5Aza): 3.8 ± 1.8
  MIR-503 Fold change (5AzaC/No 5Aza): 3.8 ± 1.8
  MIR-508(3p) Fold change (5AzaC/No 5Aza): 1.1 ± 1.3
  LET-7f-2 Fold change (5AzaC/No 5Aza): 0.5 ± 0.2
OGT [1]
  OGT transcripts: increases
CXCR3 [2]
  CXCR3 transcripts: increases
OGT [3]
  OGT protein: increases
CXCR3 [4]; female CD4+ T cells
  CXCR3 MFI: 320+91
CXCR3 [4]; male CD4+ T cells
  CXCR3 MFI: 316+108
CXCR3 [4]; untreated and 5-azaC treated CD4+ T cells from male-female pairs
  CXCR3 protein: no increase
OGT regulatory elements
  methylation of region −412 to −88 5′ to OGT transcription start site: significant demethylation
[5]
  methylation of region −1567 to −1067 5′ to the CXCR3 transcription start site: significant decrease
[6]
  methylation of regulatory regions 5′ to the miR-98/Let 7-f2 gene cluster: significantly demethylates
